The values below are quoted from earlier work in patent publication US12029723B2, “Compounds and forms of treatment for female sexual disorders” (GTO PHARMA, LLC., priority 2015, dated 2024).

For data set [1], the system named is pre-menopausal women with SIAD related disorders.
For a further data set, the system named is liver. The conditions noted are these: a person taking 400 mg daily in herbal substitutes for weight loss.

Take `O=c1[nH]c2ccccc2n1CCN1CCN(c2cccc(C(F)(F)F)c2)CC1` [Flibanserin, 2H-benzimidazol-2-one, 1,3-dihydro-1-[2-[4-[3(tri-fluoromethyl)phenyl]-1-piperazinyl]ethyl]]: in data set [1] (100 mg daily for a minimum of 28 days), the “share of women with the benefit” value is 18%. Moreover, in data set [1] (in vivo), the “effect on GPPD (vestibulodynia, dyspareunia) or FOD” value is reported as “no therapeutic effect at all”. In data set [1] (median baseline about 2-3 SSEs per month, six month period), the “median placebo-corrected increase in satisfying sexual events (SSEs)” value was 0.5-1.0 SSEs per month. The “sedation or hypotension-related adverse events” value in data set [1] (vs 9.4% placebo) is listed as 28.6%.

As for Epigallocatechin-3-gallate [EGCG], in the data set with liver, the liver injury entry was “acute but reversible liver failure”.
